According to US11091428B2 (HAPLOGEN GMBH, priority 2016, dated 2021):

Legend:
[1] = tested on: picornaviruses (CVB1, HRV-A2, HRV-A23, EV-68); experiment: Anti-picornavirus cytopathic effect (CPE) reduction assay on HeLa H1 cells; type: cell-based; conditions: Enterovirus B, HeLa H1, 48 h, HeLa H1 cells, 48 h, category from averaging the EC50 values from four picornaviruses (CVB1, HRV-A2, HRV-A23, EV68); read-out: EC50 values of the compounds determined in the anti-picornavirus assay
How it was run: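 Cytopathic-effect protection: EC50 from non-linear regression of cell viability (CellTiterBlue, 560/590 nm) 48 h post-infection, scaled between infected and mock-infected vehicle wells. Compound dilutions added to HeLa H1 cells 2 h before virus (MOI causing complete CPE within 2 days), in DMEM + 2% FBS; categories average the four viruses.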

[2] = target: T1, PLA2G16 (Homo sapiens, UniProt P53816); experiment: Enzyme activity assay for PLA2G16 (Red/Green BODIPY PC-A2 fluorescence); type: biochemical; conditions: His-tagged PLA2G16, 4 min pre-incubation, 2 nM to 50 μM; read-out: IC50 values of the compounds determined in the enzyme activity assay for PLA2G16
T1 construct: Hexa-His (N); made in house; host or cells: E. coli BL21(DE3)
T1 sequence (P53816 1-162): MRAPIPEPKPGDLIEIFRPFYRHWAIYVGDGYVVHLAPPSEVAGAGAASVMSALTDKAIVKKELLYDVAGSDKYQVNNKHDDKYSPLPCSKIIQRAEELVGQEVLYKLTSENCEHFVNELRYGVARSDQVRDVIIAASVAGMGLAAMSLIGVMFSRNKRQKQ
How it was run: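 IC50 from non-linear fits of fluorescence rise (480/530 nm, 10 min) after adding Red/Green BODIPY PC-A2 mixed with DOPC/DOPG/cholesterol liposomes. Recombinant His-tagged human enzyme, bacterially expressed, was first exposed to inhibitor (2 nM–50 μM final) for 4 min in 50 mM Tris pH 8.5, 100 mM NaCl, 5 mM glutathione.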

Row | Structure (SMILES) | EC50 [1] | IC50 [2]
1 | O=C(NCCO)C(=O)C1CCC(=O)N1Cc1ccc(Cl)cc1 (stereo not drawn) [FP 256, 2-{1-[(4-Chlorophenyl)methyl]-5-oxopyrrolidin-2-yl}-N-(2-hydroxyethyl)-2-oxoacetamide] | 1000 to 10000 nM | < 1000 nM
2 | CC(C)SCCNC(=O)C(=O)C1CCC(=O)N1Cc1ccc(Cl)cc1 (stereo not drawn) [FP 257, 2-{1-[(4-Chlorophenyl)methyl]-5-oxopyrrolidin-2-yl}-2-oxo-N-[2-(propan-2-ylsulfanyl)-ethyl]acetamide] | < 1000 nM | < 1000 nM
3 | C[C@H](CO)NC(=O)C(=O)C1CCC(=O)N1Cc1ccc(Cl)cc1 (stereo partly drawn) [FP 258, 2-{1-[(4-Chlorophenyl)methyl]-5-oxopyrrolidin-2-yl}-N-[(2R)-1-hydroxypropan-2-yl]-2-oxoacetamide] | 1000 to 10000 nM | 1000 to 10000 nM
4 | Cc1ccccc1CN1C(=O)CCC1C(=O)C(=O)NC1CC1 (stereo not drawn) [FP 261, N-Cyclopropyl-2-{1-[(2-methylphenyl)methyl]-5-oxopyrrolidin-2-yl}-2-oxoacetamide] | 1000 to 10000 nM | < 1000 nM
5 | N#CCCNC(=O)C(=O)[C@H]1CCC(=O)N1Cc1ccccc1 [FP 262, 2-[(2R)-1-Benzyl-5-oxopyrrolidin-2-yl]-N-(2-cyanoethyl)-2-oxoacetamide] | 1000 to 10000 nM | < 1000 nM
6 | CC(C)(C#N)CNC(=O)C(=O)[C@H]1CCC(=O)N1Cc1ccccc1 [FP 263, 2-[(2R)-1-Benzyl-5-oxopyrrolidin-2-yl]-N-(2-cyano-2,2-dimethylethyl)-2-oxoacetamide] | 1000 to 10000 nM | < 1000 nM
7 | O=C(NCC1CC1)C(=O)C1CCC(=O)N1c1ccccc1 (stereo not drawn) [FP 264, N-(Cyclopropylmethyl)-2-oxo-2-(5-oxo-1-phenylpyrrolidin-2-yl)acetamide] | > 10000 nM | 1000 to 10000 nM
8 | CCNC(=O)C(=O)[C@H]1CCC(=O)N1Cc1ccccc1 [FP 265, 2-[(2R)-1-Benzyl-5-oxopyrrolidin-2-yl]-N-ethyl-2-oxoacetamide] | < 1000 nM | < 1000 nM
9 | O=C(NCC(F)F)C(=O)[C@H]1CCC(=O)N1Cc1ccccc1 [FP 266, 2-[(2R)-1-Benzyl-5-oxopyrrolidin-2-yl]-N-(2,2-difluoroethyl)-2-oxoacetamide] | < 1000 nM | < 1000 nM
10 | O=C(N[C@@H]1C[C@@H]1F)C(=O)[C@H]1CCC(=O)N1Cc1ccccc1 [FP 267, 2-[(2R)-1-Benzyl-5-oxopyrrolidin-2-yl]-N-[(1R,2S)-2-fluorocyclopropyl]-2-oxoacetamide] | < 1000 nM | < 1000 nM
11 | O=C(NC1CC(F)(F)C1)C(=O)[C@H]1CCC(=O)N1Cc1ccccc1 [FP 268, 2-[(2R)-1-Benzyl-5-oxopyrrolidin-2-yl]-N-(3,3-difluorocyclobutyl)-2-oxoacetamide] | < 1000 nM | < 1000 nM
12 | Cc1cccc(CN2C(=O)CCC2C(=O)C(=O)NC2CC2)c1 (stereo not drawn) [FP 269, N-Cyclopropyl-2-{1-[(3-methylphenyl)methyl]-5-oxopyrrolidin-2-yl}-2-oxoacetamide] | 1000 to 10000 nM | < 1000 nM
13 | Cc1ccc(CN2C(=O)CCC2C(=O)C(=O)NC2CC2)cc1 (stereo not drawn) [FP 270, N-Cyclopropyl-2-{1-[(4-methylphenyl)methyl]-5-oxopyrrolidin-2-yl}-2-oxoacetamide] | < 1000 nM | < 1000 nM
14 | C[C@@H]1C[C@H]1NC(=O)C(=O)[C@H]1CCC(=O)N1Cc1ccccc1 [FP 271, 2-[(2R)-1-Benzyl-5-oxopyrrolidin-2-yl]-N-[(1R,2R)-2-methylcyclopropyl]-2-oxoacetamide] | < 1000 nM | < 1000 nM
15 | CC(C)(O)CNC(=O)C(=O)C1CCC(=O)N1Cc1ccc(Cl)cc1 (stereo not drawn) [FP 274, 2-{1-[(4-Chlorophenyl)methyl]-5-oxopyrrolidin-2-yl}-N-(2-hydroxy-2-methylpropyl)-2-oxoacetamide] | 1000 to 10000 nM | < 1000 nM
16 | O=C(NCCCO)C(=O)C1CCC(=O)N1Cc1ccc(Cl)cc1 (stereo not drawn) [FP 275, 2-{1-[(4-Chlorophenyl)methyl]-5-oxopyrrolidin-2-yl}-N-(3-hydroxypropyl)-2-oxoacetamide] | > 10000 nM | < 1000 nM
17 | O=C(NCC1(CO)CC1)C(=O)C1CCC(=O)N1Cc1ccc(Cl)cc1 (stereo not drawn) [FP 276, 2-{1-[(4-Chlorophenyl)methyl]-5-oxopyrrolidin-2-yl}-N-{[1-(hydroxymethyl)cyclopropyl]-methyl}-2-oxoacetamide] | 1000 to 10000 nM | < 1000 nM
18 | Cc1ccc(CN2C(=O)CCC2C(=O)C(=O)NC2CC2)s1 (stereo not drawn) [FP 277, N-Cyclopropyl-2-{1-[(5-methylthiophen-2-yl)methyl]-5-oxopyrrolidin-2-yl}-2-oxoacetamide] | 1000 to 10000 nM | < 1000 nM

Row | Structure (SMILES) | EC50 [1] | IC50 [2]
19 | CCNC(=O)C(=O)C1CCC(=O)N1Cc1ccc(C)s1 (stereo not drawn) [FP 278, N-Ethyl-2-{1-[(5-methylthiophen-2-yl)methyl]-5-oxopyrrolidin-2-yl}-2-oxoacetamide] | 1000 to 10000 nM | < 1000 nM
20 | O=C(NC1CC1)C(=O)C1CCC(=O)N1CC1CCCC1 (stereo not drawn) [FP 279, 2-[1-(Cyclopentylmethyl)-5-oxopyrrolidin-2-yl]-N-cyclopropyl-2-oxoacetamide] | 1000 to 10000 nM | < 1000 nM
21 | O=C(NCC1CC1)C(=O)C1CCC(=O)N1CC1CCCC1 (stereo not drawn) [FP 280, 2-[1-(Cyclopentylmethyl)-5-oxopyrrolidin-2-yl]-N-(cyclopropylmethyl)-2-oxoacetamide] | < 1000 nM | < 1000 nM
22 | CNC(=O)C(=O)[C@H]1CCC(=O)N1Cc1ccccc1 [FP 281, 2-[(2R)-1-Benzyl-5-oxopyrrolidin-2-yl]-N-methyl-2-oxoacetamide] | 1000 to 10000 nM | < 1000 nM
23 | O=C(NCCF)C(=O)[C@H]1CCC(=O)N1Cc1ccccc1 [FP 282, 2-[(2R)-1-Benzyl-5-oxopyrrolidin-2-yl]-N-(2-fluoroethyl)-2-oxoacetamide] | < 1000 nM | < 1000 nM
24 | CNC(=O)C(=O)[C@H]1CCC(=O)N1Cc1ccc(Cl)cc1 [FP 283, 2-[(2R)-1-[(4-Chlorophenyl)methyl]-5-oxopyrrolidin-2-yl]-N-methyl-2-oxoacetamide] | 1000 to 10000 nM | < 1000 nM
25 | O=C(NC1CC1)C(=O)[C@H]1CCC(=O)N1Cc1ccc(Cl)cc1 [FP 284, 2-[(2R)-1-[(4-Chlorophenyl)methyl]-5-oxopyrrolidin-2-yl]-N-cyclopropyl-2-oxoacetamide] | < 1000 nM | < 1000 nM
26 | CCNC(=O)C(=O)[C@H]1CCC(=O)N1Cc1ccc(Cl)cc1 [FP 285, 2-[(2R)-1-[(4-Chlorophenyl)methyl]-5-oxopyrrolidin-2-yl]-N-ethyl-2-oxoacetamide] | < 1000 nM | < 1000 nM
27 | CC(C)OCCNC(=O)C(=O)[C@H]1CCC(=O)N1Cc1ccccc1 [FP 286, 2-[(2R)-1-Benzyl-5-oxopyrrolidin-2-yl]-2-oxo-N-[2-(propan-2-yloxy)ethyl]acetamide] | 1000 to 10000 nM | < 1000 nM
28 | Cc1noc(CNC(=O)C(=O)[C@H]2CCC(=O)N2Cc2ccccc2)n1 [FP 287, 2-[(2R)-1-Benzyl-5-oxopyrrolidin-2-yl]-N-[(3-methyl-1,2,4-oxadiazol-5-yl)methyl]-2-oxoacetamide] | 1000 to 10000 nM | < 1000 nM
29 | CCCNC(=O)C(=O)[C@H]1CCC(=O)N1Cc1ccccc1 [FP 288, 2-[(2R)-1-Benzyl-5-oxopyrrolidin-2-yl]-2-oxo-N-propylacetamide] | < 1000 nM | < 1000 nM
30 | Cc1cc(CNC(=O)C(=O)[C@H]2CCC(=O)N2Cc2ccccc2)no1 [FP 289, 2-[(2R)-1-Benzyl-5-oxopyrrolidin-2-yl]-N-[(5-methyl-1,2-oxazol-3-yl)methyl]-2-oxoacetamide] | < 1000 nM | < 1000 nM
31 | N#CC1(CNC(=O)C(=O)[C@H]2CCC(=O)N2Cc2ccccc2)CC1 [FP 290, 2-[(2R)-1-Benzyl-5-oxopyrrolidin-2-yl]-N-[(1-cyanocyclopropyl)methyl]-2-oxoacetamide] | 1000 to 10000 nM | < 1000 nM
32 | O=C(NC12CC(C1)C2)C(=O)[C@H]1CCC(=O)N1Cc1ccccc1 [FP 291, 2-[(2R)-1-Benzyl-5-oxopyrrolidin-2-yl]-N-{bicyclo[1.1.1]pentan-1-yl}-2-oxoacetamide] | < 1000 nM | < 1000 nM
33 | O=C(NCCN1CCCCC1=O)C(=O)[C@H]1CCC(=O)N1Cc1ccccc1 [FP 292, 2-[(2R)-1-Benzyl-5-oxopyrrolidin-2-yl]-2-oxo-N-[2-(2-oxopiperidin-1-yl)ethyl]acetamide] | 1000 to 10000 nM | < 1000 nM
34 | Cc1noc(CCNC(=O)C(=O)[C@H]2CCC(=O)N2Cc2ccccc2)n1 [FP 293, 2-[(2R)-1-Benzyl-5-oxopyrrolidin-2-yl]-N-[2-(3-methyl-1,2,4-oxadiazol-5-yl)ethyl]-2-oxoacetamide] | 1000 to 10000 nM | < 1000 nM
35 | O=C(NC1CC(F)C1)C(=O)[C@H]1CCC(=O)N1Cc1ccccc1 (stereo partly drawn) [FP 294, 2-[(2R)-1-Benzyl-5-oxopyrrolidin-2-yl]-N-(3-fluorocyclobutyl)-2-oxoacetamide] | < 1000 nM | < 1000 nM
36 | CC(F)(F)CNC(=O)C(=O)[C@H]1CCC(=O)N1Cc1ccccc1 [FP 295, 2-[(2R)-1-Benzyl-5-oxopyrrolidin-2-yl]-N-(2,2-difluoropropyl)-2-oxoacetamide] | < 1000 nM | < 1000 nM
